Measured values published in US9206232B2, “Organic compounds and their uses” (Novartis AG, priority 2009, dated 2015).

Columns and labels:
[1] = target: HCV NS3-4A serine protease (full-length NS3-4A protein) (Hepatitis C virus genotype 1a (isolate 1) (HCV), UniProt P26664); experiment: HCV NS3-4A protease assay; format: biochemical, HCV genotype 1a; settings: genotype 1a strain HCV-1, fluorogenic peptide substrate, read-out: Protease assay Ex. 12 IC50
Procedure: The inhibitory activity of certain compounds of Table A against HCV NS3-4A serine protease is determined in a homogenous assay using the full-length NS3-4A protein (genotype 1a, strain HCV-1) and a commercially available internally-quenched fluorogenic peptide substrate as described by Taliani, M., et al. 1996 Anal. Biochem. 240:60-67, which is incorporated by reference in its entirety.

[2] = tested on: HCV; settings: ribavirin alone; cited from earlier work

Sequence of HCV NS3-4A serine protease (full-length NS3-4A protein) (P26664 1027-1657): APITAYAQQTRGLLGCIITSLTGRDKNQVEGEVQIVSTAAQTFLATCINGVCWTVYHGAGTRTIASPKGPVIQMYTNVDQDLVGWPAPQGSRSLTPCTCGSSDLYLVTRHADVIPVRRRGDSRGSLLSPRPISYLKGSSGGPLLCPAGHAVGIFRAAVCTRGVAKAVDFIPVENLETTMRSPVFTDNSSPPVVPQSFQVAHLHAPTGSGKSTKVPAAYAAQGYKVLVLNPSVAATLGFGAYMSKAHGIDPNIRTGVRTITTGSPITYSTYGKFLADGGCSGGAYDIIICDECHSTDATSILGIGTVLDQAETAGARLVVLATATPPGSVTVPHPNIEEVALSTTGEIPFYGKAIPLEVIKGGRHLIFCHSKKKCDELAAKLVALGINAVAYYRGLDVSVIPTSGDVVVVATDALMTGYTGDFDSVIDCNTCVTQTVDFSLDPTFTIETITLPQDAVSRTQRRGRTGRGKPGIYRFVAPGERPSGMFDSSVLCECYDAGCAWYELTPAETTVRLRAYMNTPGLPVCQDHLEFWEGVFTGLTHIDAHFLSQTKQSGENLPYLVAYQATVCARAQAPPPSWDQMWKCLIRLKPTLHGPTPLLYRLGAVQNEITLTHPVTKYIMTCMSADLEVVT
Sequence of HCV NS3-4A serine protease (full-length NS3-4A protein) (P26664 1658-1711 partner): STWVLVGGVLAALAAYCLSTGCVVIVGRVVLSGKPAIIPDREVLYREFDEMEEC

`[2H]C([2H])([2H])C([2H])(N1CCCC[C@H]1C(=O)NC(C(=O)N[C@H](C(=O)N1C[C@]2(C[C@H]1C(=O)N[C@]1(C(=O)NS(=O)(=O)N3CCCC3)C[C@H]1C=C)C(C)(C)C21CCC1)C(C)(C)C)C1CCCCC1)C([2H])([2H])[2H]` (some centres unmarked) [Compound 145] showed an IC50 [1] of 5.9 nM.

`C=C[C@@H]1C[C@]1(NC(=O)[C@@H]1C[C@@]2(CN1C(=O)[C@@H](NC(=O)[C@@H](NC(=O)[C@@H]1Cc3[nH]cnc3CN1)C(C)(C)C)C(C)(C)C)C(C)(C)C21CCC1)C(=O)NS(=O)(=O)N1CCCC1` [Example 29, (5R,8S)-7-[(2S)-2-{[(2S)-3,3-dimethyl-2-{[(6S)-4,5,6,7-tetrahydro-1H-imidazo[4,5-c]pyridin-6-ylcarbonyl]amino}butanoyl]amino}-3,3-dimethylbutanoyl]-10,10-dimethyl-N-{(1 R,2S)-1-[(pyrrolidin-1-ylsulfonyl)carbamoyl]-2-vinylcyclopropyl}-7-azadispiro[3.0.4.1]decane-8-carboxamide] showed an IC50 [1] of 40 nM.

`C=C[C@@H]1C[C@]1(NC(=O)[C@@H]1C[C@@]2(CN1C(=O)[C@@H](NC(=O)[C@@H](NC(=O)[C@@H]1CCCCN1C(C)C)C1CCCCC1)C1CCCC1)C(C)(C)C21CCC1)C(=O)NS(=O)(=O)N1CCCC1` [Example 66, (5R,8S)-7-[(2S)-2-{[(2S)-2-cyclohexyl-2-({[(2S)-1-isopropylpiperidin-2-yl]carbonyl}amino)acetyl]amino}-2-cyclopentylacetyl]-10,10-dimethyl-N-{(1R,2S)-1-[(pyrrolidin-1-ylsulfonyl)carbamoyl]-2-vinylcyclopropyl}-7-azadispiro[3.0.4.1]decane-8-carboxamide] gave an IC50 [1] of 5.5 nM.

In the case of `NC(=O)c1ncn([C@@H]2O[C@H](CO)[C@@H](O)[C@H]2O)n1` [Ribavirin, ribavirin], the “effect on serum levels of HCV-RNA” value [2] is listed as “does not lower serum levels of HCV-RNA” and the “patients with serum amino transferase levels reduced to normal” value [2] is listed as 40 % of patients.
